Laboratory results reported in patent US6214833A, “Pyrimidinone-1,3-oxathiolane derivatives with antiviral activity” (Zambon Group S.p.A., priority 1997, dated 2001).

Tests used:
[1] = system: limphocitic human cell line MT4 infected by HIV-1 strain BRU; experiment: anti-HIV activity on lymphocytes (MT4 cells): inhibition of viral reverse transcriptase activity in culture supernatant; format: cell-based, HIV-1 strain BRU; human MT4 cells; details: Human immunodeficiency virus 1, Lymphocyte, MT4 human lymphocytes infected by HIV-1 BRU, 7-8 days culture at 37° C.
Experimental: (§1) The antiviral activity of the compounds of formula I, object of the present invention, was evaluated on the MT4 human lymphocytes infected by HIV-1 BRU strain and on fresh human macrophages infected by the macrophage-trophic HIV-1 PAR strain.
(§2) Both kinds of experiment were carried out following conventionally used methods for the evaluation of reverse transcriptase inhibitors and are predictive of the in vivo anti-HIV activity.
(§3) The anti-HIV activity of the compounds of formula I was evaluated on the limphocitic human cell line MT4 infected by HIV-1 strain BRU and on fresh human macrophages infected by the macrophage-trophic HIV- 1 PAR strain.
The cells, infected and treated with the compounds of formula I, were cultured at 37° C. for 7-8 days. Every 3-4 days the culture supernatant was withdrawn and substituted with fresh medium containing or not the compounds of formula I. The anti-HIV activity was evaluated at the end of the experiment as 50% inhibition (IC50) of the activity of the viral reverse transcriptase in the supernatant of infected cultures in comparison with the control cultures.
The used methodologies were described in the papers published by Rey M. A. et al. on Biochem. Biophys. Res. Commun. (1984), 121, 126-133 and on Virology (1991), 181, 165-171.
(§4) In the following table the data of anti-HIV activity on both the cell lines for some representative compounds of formula I are reported.

HIV = details: compared with zidovudine, zalcitabine, didanosine and stavudine; WO 91/17159; cited from earlier work
[2] = system: fresh human macrophages infected by the macrophage-trophic HIV-1 PAR strain; experiment: anti-HIV activity on macrophages: inhibition of viral reverse transcriptase activity in culture supernatant at peak; format: cell-based, HIV-1 PAR strain; human macrophages; details: Human immunodeficiency virus 1, Macrophage; fresh human macrophages infected by HIV-1 PAR; about 1 month culture at 37° C.; at peak of reverse transcriptase expression
Experimental: as §1, §2, §3
The cells, infected and treated with the compounds of formula I, were cultured at 37° C. for about 1 month. Every 3-4 days the culture supernatant was withdrawn and substituted with fresh medium containing or not the compounds of formula I. The viral reverse-transcriptase activity, determined in the culture supernatant every 3-4 days, was followed up to the end of the experiment by determining the maximum peak of the enzyme expression. In the correspondence of such a peak the anti-HIV activity was evaluated as 50% inhibition (IC50) of the enzymatic activity in the supernatant of the infected and treated cultures in comparison with the control ones.
The used methodology was described by Schmidtmayerova H. et al. on Virology (1992), 190, 124-133.
as §4

| Structure (SMILES) | IC50 [1] | antiviral potency and toxicity compared with other RT-inhibitors (HIV) | IC50 [2] |
| --- | --- | --- | --- |
| Nc1ccn([C@@H]2CS[C@H](COC(=O)CCCCNCCCCCCNCc3ccccc3)O2)c(=O)n1 (relative stereo) [Compound 49, (±)-4-Amino-1-[2-[5-[6-(phenylmethylamino)hexylamino]-pentanoyloxymethyl]-1,3-oxathiolan-5-yl]-2(1H)-pyrimidinone] | 900 nM | – | – |
| Nc1ccn([C@@H]2CS[C@H](CO)O2)c(=O)n1 [lamivudine, (2R-cis)-4-amino-1-(2-hydroxymethyl-1,3-oxathiolan-5-yl)-2(1H)-pyrimidinone] | – | more potent and less toxic antiviral than zidovudine, zalcitabine, didanosine and stavudine | – |
| CC(C)(C)OC(=O)N(CCCCCC(=O)OC[C@@H]1O[C@H](n2ccc(N)nc2=O)CS1)Cc1ccccc1 (relative stereo) [Compound 4, (±)-4-Amino-1-[2-[6-(N-tert-butoxycarbonyl-N-phenylmethylamino)-hexanoyloxy-methyl]-1,3-oxathiolan-5-yl]-2(1H)-pyrimidinone] | 1 nM | – | – |
| CCOC(=O)N(CCCCCC(=O)OC[C@@H]1O[C@H](n2ccc(N)nc2=O)CS1)Cc1ccccc1 (relative stereo) [Compound 9, (±)-4-Amino-1-[2-[6-(N-ethoxycarbonyl-N-phenylmethylamino)-hexanoyloxymethyl]-1,3-oxathiolan-5-yl]-2(1H)-pyrimidinone] | 1 to 50 nM | – | – |
| O=C(CCCCCNCCCCCCNCc1ccccc1)Nc1ccn([C@@H]2CS[C@H](CO)O2)c(=O)n1 (relative stereo) [Compound 56, (±)-1-(2-Hydroxymethyl-1,3-oxathiolan-5-yl)-4-[6-[6-phenylmethylamino)hexylamino]-hexanoylamino]-2(1H)-pyrimidinone] | 130 nM | – | 100 nM |
| Nc1ccn([C@@H]2CS[C@H](COC(=O)CCCCCNCc3cccc(C(F)(F)F)c3)O2)c(=O)n1 (relative stereo) [Compound 53, (±)-4-Amino-1-[2-[6-[(3trifluorophenyl)methylamino]-hexanoyloxymethyl]-1,3-oxathiolan-5-yl]-2(1H)-pyrimidinone] | 700 nM | – | – |
| Nc1ccn([C@@H]2CS[C@H](COC(=O)CCCCCNCc3ccccc3)O2)c(=O)n1 (relative stereo) [Compound 52, (±)-4-Amino-1-[2-[6-(phenylmethylamino)hexanoyloxymethyl]-1,3-oxathiolan-5-yl]-2(1H)-pyrimidinone] | 100 to 1000 nM | – | – |
| CC(C)(C)OC(=O)N(CC(=O)OC[C@@H]1O[C@H](n2ccc(N)nc2=O)CS1)Cc1ccccc1 (relative stereo) [Compound 10, (±)-4-Amino-1-[2-[(N-tert-butoxycarbonyl-N-phenylmethylamino)-acetyloxymethyl]-1,3-oxathiolan-5-yl]-2(1H)-pyrimidinone] | 10 to 100 nM | – | – |
| CC(C)(C)OC(=O)N(CCCCCC(=O)OC[C@@H]1O[C@H](n2ccc(N)nc2=O)CS1)CCCCCN(Cc1ccccc1)C(=O)OC(C)(C)C (relative stereo) [Compound 1, (±)-4-Amino-1-[2-[6-[5-(N'-tert-butoxycarbonyl-N'-phenylmethylamino)-N-tert-butoxycarbonyl-pentylamino]-hexanoyloxymethyl]-1,3-oxathiolan-5-yl]-2(1H)-pyrimidinone] | 1 to 5 nM | – | – |
| O=C(CCCCCNCCCCCNCc1ccccc1)Nc1ccn([C@@H]2CS[C@H](CO)O2)c(=O)n1 (relative stereo) [Compound 57, (±)-1-(2-Hydroxymethyl-1,3-oxathiolan-5-yl)-4-[6-[5-(phenylmethylamino)pentylamino]-hexanoylamino]-2(1H)-pyrimidinone] | 410 nM | – | 100 nM |
| CC(C)(C)OC(=O)N(CCCCCC(=O)OC[C@H]1O[C@@H](n2ccc(N)nc2=O)CS1)CCCCCN(Cc1ccccc1)C(=O)OC(C)(C)C [Compound 2, (2S, 5R)-4-Amino-1-[2-[6-[5-(N'-tert-butoxycarbonyl-N'-phenylmethylamino)-N-tert-butoxycarbonyl-pentylamino]-hexanoyloxymethyl]-1,3-oxathiolan-5-yl]-2(1H)-pyrimidinone] | < 100 nM | – | – |
| CC(C)(C)OC(=O)N(CCCCCC(=O)OC[C@@H]1O[C@H](n2ccc(N)nc2=O)CS1)Cc1ccccc1C(F)(F)F (relative stereo) [Compound 7, (±)-4-Amino-1-[2-[6-[N-tert-butoxycarbonyl-N-(2-trifluoromethyl-phenyl)methyl-amino]-hexanoyloxymethyl-]-1,3-oxathiolan-5-yl]-2(1H)-pyrimidinone] | 1 to 10 nM | – | – |
| Nc1ccn([C@@H]2CS[C@H](CO)O2)c(=O)n1 (relative stereo) [BCH-189, 4-amino-1-(2-hydroxymethyl-1,3-oxathiolan-5-yl)-2(1H)-pyrimidinone, reference compound] | 700 nM | – | 100 nM |
| Nc1ccn([C@@H]2CS[C@H](COC(=O)CCCCCNCCCCCCNCc3ccccc3C(F)(F)F)O2)c(=O)n1 (relative stereo) [Compound 54, (±)-4-Amino-1-[2-[6-[6-[(2-trifluoromethylphenyl)methylamino]-hexylamino]-hexanoyloxymethyl]-1,3-oxathiolan-5-yl]-2(1H)-pyrimidinone] | 800 nM | – | – |
| Nc1ccn([C@@H]2CS[C@H](COC(=O)CCCCCNCCCCCNCc3ccccc3)O2)c(=O)n1 (relative stereo) [Compound 48, (±)-4-Amino-1-[2-[6-[5-(phenylmethylamino)pentylamino]-hexanoyloxymethyl]-1,3-oxathiolan-5-yl]-2(1H)-pyrimidinone] | 150 nM | – | – |
| CC(C)(C)OC(=O)N(CCCCCCN(Cc1ccccc1C(F)(F)F)C(=O)OC(C)(C)C)CCCCCC(=O)OC[C@@H]1O[C@H](n2ccc(N)nc2=O)CS1 (relative stereo) [Compound 8, (±)-4-Amino-1-[2-[6-[6-[N'-tert-butoxycarbonyl-N'-(2-trifluoromethylphenyl)methylamino]-N-tert-butoxycarbonyl-hexylamino]-hexanoyloxymethyl]-1,3-oxathiolan-5-yl]-2(1H)-pyrimidinone] | 100 nM | – | – |
| CC(C)(C)OC(=O)N(CCCCCC(=O)OC[C@@H]1O[C@H](n2ccc(N)nc2=O)CS1)Cc1cccc(C(F)(F)F)c1 (relative stereo) [Compound 6, (±)-4-Amino-1-[2-[6-[N-tert-butoxycarbonyl-N-(3trifluoromethylphenyl)methyl-amino]-hexanoyloxymethyl-]1,3-oxathiolan-5-yl]-2(1H)-pyrimidinone] | 4 nM | – | – |
| Nc1ccn([C@@H]2CS[C@H](COC(=O)CCCCCNCc3ccccc3C(F)(F)F)O2)c(=O)n1 (relative stereo) [Compound 55, (±)-4-Amino-1-[2-[6-[(2-trifluorophenyl)methylamino]-hexanoyloxymethyl]-1,3-oxathiolan-5-yl]-2(1H)-pyrimidinone] | 100 nM | – | – |
